Reference: ChEMBL document CHEMBL3872249, “Computer design, synthesis, and bioactivity analyses of drugs like fingolimod used in the treatment of multiple sclerosis” (Bioorg Med Chem, 2017)

What was measured:
Format in all cases: functional
U-118-MG [1] = test: Effect on HLA-DRB1 mRNA expression in human U118MG cells at EC10 by qPCR method relative to beta-actin
SH-SY5Y [2] = test: Effect on AGT mRNA expression in human SH-SY5Y cells at EC10 by qPCR method relative to beta-actin
SK-N-SH [3] = test: Effect on APP mRNA expression in human SK-N-SH cells at EC10 by qPCR method relative to beta-actin
U-118-MG [4] = test: Effect on AGT mRNA expression in human U118MG cells at EC10 by qPCR method relative to beta-actin
SH-SY5Y [5] = test: Effect on ITGB2 mRNA expression in human SH-SY5Y cells at EC10 by qPCR method relative to beta-actin
SK-N-SH [6] = test: Effect on HIF1 mRNA expression in human SK-N-SH cells at EC10 by qPCR method relative to beta-actin
U-118-MG [7] = test: Effect on OPRD1 mRNA expression in human U118MG cells at EC10 by qPCR method relative to beta-actin
SH-SY5Y [8] = test: Effect on CYP19A1 mRNA expression in human SH-SY5Y cells at EC10 by qPCR method relative to beta-actin
U-118-MG [9] = test: Effect on ADRB2 mRNA expression in human U118MG cells at EC10 by qPCR method relative to beta-actin
SH-SY5Y [10] = test: Effect on GRM7 mRNA expression in human SH-SY5Y cells at EC10 by qPCR method relative to beta-actin
SH-SY5Y [11] = test: Effect on HIF1A mRNA expression in human SH-SY5Y cells at EC10 by qPCR method relative to beta-actin
U-118-MG [12] = test: Effect on APP mRNA expression in human U118MG cells at EC10 by qPCR method relative to beta-actin
U-118-MG [13] = test: Effect on ITGB2 mRNA expression in human U118MG cells at EC10 by qPCR method relative to beta-actin
SH-SY5Y [14] = test: Effect on CD44 mRNA expression in human SH-SY5Y cells at EC10 by qPCR method relative to beta-actin
SK-N-SH [15] = test: Effect on PTGDR mRNA expression in human SK-N-SH cells at EC10 by qPCR method relative to beta-actin
U-118-MG [16] = test: Effect on PTGDR mRNA expression in human U118MG cells at EC10 by qPCR method relative to beta-actin
SH-SY5Y [17] = test: Effect on FASLG mRNA expression in human SH-SY5Y cells at EC10 by qPCR method relative to beta-actin
SH-SY5Y [18] = test: Effect on MAL mRNA expression in human SH-SY5Y cells at EC10 by qPCR method relative to beta-actin
SK-N-SH [19] = test: Effect on GRM5 mRNA expression in human SK-N-SH cells at EC10 by qPCR method relative to beta-actin
U-118-MG [20] = test: Effect on CSF1 mRNA expression in human U118MG cells at EC10 by qPCR method relative to beta-actin
U-118-MG [21] = test: Effect on CRHR1 mRNA expression in human U118MG cells at EC10 by qPCR method relative to beta-actin
U-118-MG [22] = test: Effect on CD4 mRNA expression in human U118MG cells at EC10 by qPCR method relative to beta-actin
U-118-MG [23] = test: Effect on GRM1 mRNA expression in human U118MG cells at EC10 by qPCR method relative to beta-actin
SK-N-SH [24] = test: Effect on IL18 mRNA expression in human SK-N-SH cells at EC10 by qPCR method relative to beta-actin
U-118-MG [25] = test: Effect on IL18 mRNA expression in human U118MG cells at EC10 by qPCR method relative to beta-actin
SH-SY5Y [26] = test: Effect on IL18 mRNA expression in human SH-SY5Y cells at EC10 by qPCR method relative to beta-actin
SH-SY5Y [27] = test: Effect on LTA mRNA expression in human SH-SY5Y cells at EC10 by qPCR method relative to beta-actin
SK-N-SH [28] = test: Effect on MAPK1 mRNA expression in human SK-N-SH cells at EC10 by qPCR method relative to beta-actin
SK-N-SH [29] = test: Effect on HLA-DRB1 mRNA expression in human SK-N-SH cells at EC10 by qPCR method relative to beta-actin
U-118-MG [30] = test: Effect on S1PR3 mRNA expression in human U118MG cells at EC10 by qPCR method relative to beta-actin
U-118-MG [31] = test: Effect on PLP1 mRNA expression in human U118MG cells at EC10 by qPCR method relative to beta-actin
SH-SY5Y [32] = test: Effect on TNFRSF1B mRNA expression in human SH-SY5Y cells at EC10 by qPCR method relative to beta-actin
SK-N-SH [33] = test: Effect on TGFB1 mRNA expression in human SK-N-SH cells at EC10 by qPCR method relative to beta-actin
SK-N-SH [34] = test: Effect on TGFB2 mRNA expression in human SK-N-SH cells at EC10 by qPCR method relative to beta-actin
SH-SY5Y [35] = test: Effect on TGFB2 mRNA expression in human SH-SY5Y cells at EC10 by qPCR method relative to beta-actin
U-118-MG [36] = test: Effect on TNFRSF1A mRNA expression in human U118MG cells at EC10 by qPCR method relative to beta-actin
SK-N-SH [37] = test: Effect on PLP1 mRNA expression in human SK-N-SH cells at EC10 by qPCR method relative to beta-actin
SH-SY5Y [38] = test: Effect on CXCL9 mRNA expression in human SH-SY5Y cells at EC10 by qPCR method relative to beta-actin
SH-SY5Y [39] = test: Effect on PLP1 mRNA expression in human SH-SY5Y cells at EC10 by qPCR method relative to beta-actin
U-118-MG [40] = test: Effect on CCL5 mRNA expression in human U118MG cells at EC10 by qPCR method relative to beta-actin
U-118-MG [41] = test: Effect on TGFB2 mRNA expression in human U118MG cells at EC10 by qPCR method relative to beta-actin
U-118-MG [42] = test: Effect on TGFB1 mRNA expression in human U118MG cells at EC10 by qPCR method relative to beta-actin
SK-N-SH [43] = test: Effect on SOD1 mRNA expression in human SK-N-SH cells at EC10 by qPCR method relative to beta-actin
SH-SY5Y [44] = test: Effect on CCL5 mRNA expression in human SH-SY5Y cells at EC10 by qPCR method relative to beta-actin

CCCCCCCCc1ccc(CCC(N)(CO)CO)cc1 [FINGOLIMOD]
fold change (FC) (U-118-MG [1]): -3.4313
fold change (FC) (SH-SY5Y [2]): 3.9041
fold change (FC) (SK-N-SH [3]): -8.0801
fold change (FC) (U-118-MG [4]): 5.5368
fold change (FC) (SH-SY5Y [5]): -3.9655
fold change (FC) (SK-N-SH [6]): -3.1808
fold change (FC) (U-118-MG [7]): 3.818
fold change (FC) (SH-SY5Y [8]): -5.8869
fold change (FC) (U-118-MG [9]): -4.9171
fold change (FC) (SH-SY5Y [10]): -5.361
fold change (FC) (SH-SY5Y [11]): -8.3109
fold change (FC) (U-118-MG [12]): -2.5646
fold change (FC) (U-118-MG [13]): -4.0523
fold change (FC) (SH-SY5Y [14]): -4.0629
fold change (FC) (SK-N-SH [15]): -4.3981
fold change (FC) (U-118-MG [16]): -4.4856
fold change (FC) (SH-SY5Y [17]): -3.0525
fold change (FC) (SH-SY5Y [18]): -5.5117
fold change (FC) (SK-N-SH [19]): -5.4523

CCCCCCCCn1nnnc1CCC(N)(CO)CO.Cl
fold change (FC) (U-118-MG [20]): -4.2226
fold change (FC) (U-118-MG [21]): 4.2936
fold change (FC) (U-118-MG [22]): -3.5323
fold change (FC) (U-118-MG [23]): -6.1329
fold change (FC) (SK-N-SH [24]): -5.1137
fold change (FC) (U-118-MG [25]): -3.772
fold change (FC) (SH-SY5Y [26]): -3.9685
fold change (FC) (SH-SY5Y [27]): -2.54
fold change (FC) (SK-N-SH [28]): -10.5515

CCCCCCCCn1nnnc1-c1ccc(C(O)CC(N)(CO)CO)cc1.Cl (centres undefined)
fold change (FC) (SK-N-SH [29]): -4.1339
fold change (FC) (U-118-MG [30]): -4.6278
fold change (FC) (U-118-MG [31]): 3.4958
fold change (FC) (SH-SY5Y [32]): -2.9117
fold change (FC) (SK-N-SH [33]): -5.3267
fold change (FC) (SK-N-SH [34]): -4.9847
fold change (FC) (SH-SY5Y [35]): -2.8716
fold change (FC) (U-118-MG [36]): -3.0144
fold change (FC) (SK-N-SH [37]): 4.9417
fold change (FC) (SH-SY5Y [38]): -3.0249
fold change (FC) (SH-SY5Y [39]): 3.7859
fold change (FC) (U-118-MG [40]): -5.3124
fold change (FC) (U-118-MG [41]): -5.915
fold change (FC) (U-118-MG [42]): -5.1404
fold change (FC) (SK-N-SH [43]): -3.3929
fold change (FC) (SH-SY5Y [44]): -3.3855
